Here are results for 15 molecules from patent US8785478B2, “Viral polymerase inhibitors” (Biota Scientific Management Pty Ltd, priority 2012, dated 2014).

Molecules are shown by their SMILES. Values after ≈ are worked out from the molar mass of the structure shown. Read-outs that look alike come from different tables or passages of the source. Bounds are passed on as bounds.

In data set [1] the target is T1, 1b (BK) NS5BΔ21 (Hepatitis C virus genotype 1b, UniProt P26663).
T1 construct: 100 nM, 1b (BK) NS5BΔ21
T1 sequence (P26663 2420-2989, stated change not applied): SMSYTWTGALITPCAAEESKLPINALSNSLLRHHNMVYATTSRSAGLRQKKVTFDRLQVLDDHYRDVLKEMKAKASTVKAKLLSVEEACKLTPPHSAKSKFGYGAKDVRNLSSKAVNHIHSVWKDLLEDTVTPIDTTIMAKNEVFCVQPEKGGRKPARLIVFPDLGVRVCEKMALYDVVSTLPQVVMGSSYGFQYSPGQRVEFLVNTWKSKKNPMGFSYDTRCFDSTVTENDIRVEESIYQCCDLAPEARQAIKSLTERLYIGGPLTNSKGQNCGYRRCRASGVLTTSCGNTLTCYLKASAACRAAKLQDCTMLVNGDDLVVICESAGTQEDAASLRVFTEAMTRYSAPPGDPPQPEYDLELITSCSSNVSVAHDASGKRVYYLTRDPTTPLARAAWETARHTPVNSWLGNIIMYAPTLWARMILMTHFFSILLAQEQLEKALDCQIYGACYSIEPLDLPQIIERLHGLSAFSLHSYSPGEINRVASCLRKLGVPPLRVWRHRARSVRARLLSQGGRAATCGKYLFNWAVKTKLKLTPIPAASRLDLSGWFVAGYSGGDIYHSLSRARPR
The experiment in a line: HCV Polymerase Inhibition Assay. Format: biochemical. As to the method:
HCV polymerase reactions were carried out using a modified method of Howe et al., Antimicrobial Agents and Chemotherapy 2004 48(12): 4813-4821. Reactions contained a final concentration of, 0.5% DMSO, 100 nM, 1b (BK) NS5BΔ21, 20 mM Tris-HCl pH 7.5, 5 mM MgCl2, 5 mM MnCl2, 3 mM DTT, 0.05% BSA, 0.2 U/μL RNasin, 10 μg/mL Poly(rC) template, GTP (at Km) and 0.05 μCi/μL ^33P-GTP in a total reaction volume of 50 μL. Compounds were tested in a three fold dilution series, for example starting from 50 μM. Reactions were initiated with the addition of GTP and terminated after 90 min with 50 μL ice cold 0.2 M EDTA. Terminated reactions were transferred to DEAE 96-well filter plates, unincorporated nucleotides washed from the filters and 50 μL scintillation fluid added prior to reading on a scintillation counter. The compound concentration that reduced ^33P-GTP incorporation by 50% (IC50) was calculated using non-linear regression.

A short description of data set [2]: Aqueous solubility (laser nephelometry). Format: physicochemical. The following applies: aqueous assay buffer with 1% DMSO, kinetic from dmso stock, 30 minute incubation at 25° C. As to the method: Test compounds prepared in DMSO were screened in duplicate over a range of concentrations (1.6-100 ug/mL) in different aqueous media (for example a pH6.5 buffers which are relevant to the stomach and upper regions of the small intestine and therefore important when predicting the amount of drug likely to be in solution following oral administration). Test compounds were serially diluted in 100% DMSO ranging from 10-0.16 mg/mL. These titrated DMSO stocks were then further diluted 1:100 with assay buffer and added to test plates (UV Star Griener 384 well plates), maintaining the DMSO concentration at 1%.

Data set [3] deals with genotype 1b (Con 1) subgenomic replicon cell line. The data set is described as follows: HCV replicon assay, genotype 1b (Renilla luciferase). Format: cell-based. The following applies: Hepatitis C virus, genotype 1b replicon. As to the method:
(§1) A genotype 1b (Con 1) subgenomic replicon cell line based on Blight et al., Science 2000 290: 1972-1974, modified to express a Renilla luciferase reporter gene was used to assess antiviral activity of test compounds. Cell cultures were maintained in a sub-confluent state in DMEM with glutamine, 10% heat-inactivated foetal bovine serum (FBS) and G418 (Geneticin®).
(§2) For assay, cells were seeded at a density of 7000 cells/well into 96 well tissue culture trays in culture media lacking G418. Compounds were tested in a three fold dilution series, for example starting from 50 uM. After 72 hours incubation at 37° C. and 5% CO2, Renilla luciferase activity was quantified via the Promega Renilla Luciferase or Renilla-Glo™ Luciferase Assay Systems (Promega corporation. The same method was employed for replicon assays using subgenomic genotype 1a (H77) and 2a (JFH-1) replicon cell lines with a seeding cell density of 5000 cells/well for the 2a cell lines.
(§3) The compound concentration that reduced luciferase activity by 50% (EC50) was calculated using non-linear regression.
For orientation: A replicon is a self-replicating genome or part of one, used to study replication in cells.

The subject of data set [4] is subgenomic genotype 2a (JFH-1) replicon cell line. The experiment in a line: HCV replicon assay, genotype 2a (Renilla luciferase). Format: cell-based. The following applies: Hepatitis C virus; genotype 2a replicon; read-out: G2a (EC50 μM). As to the method:
as §1, §2, §3

Data set [5] can be described thus: Cytotoxicity analysis (MTT). Format: cell-based. The following applies: genotype 1b replicon cells, three days, read-out: G1b (CC50 μM). As to the method:
Cytotoxicity of compounds against genotype 1b replicon cells was determined via metabolism of the vital dye 3-(4,5-dimethylthiaxol-2-yl)-2,5-diphenyltetrazolium bromide (MTT, for example see Watanabe et al., Journal of Virological Methods 1994 48:257-265). Plates were prepared as described for the HCV Replicon assay and cytotoxicity of the test article was evaluated after three days. MTT was added to assay plates followed by three hour incubation at 37° C. Wells were aspirated to dryness and the formazan dye dissolved by the addition of isopropanol. Absorbance values were read at 540/690 nm). The compound concentration that reduced cell viability by 50% (CC50) was calculated using non-linear regression.

In data set [6] the test system is subgenomic genotype 1a (H77) replicon cell line. The experiment in a line: HCV replicon assay, genotype 1a (Renilla luciferase). Format: cell-based. The following applies: Hepatitis C virus; genotype 1a replicon; read-out: G1a (EC50 μM). The protocol:
as §1, §2, §3

The mark [7] stands for this setting: 1b polymerase IC50 (μM) range, genotype 1b NS5B, 33P-GTP incorporation.
[8] abbreviates: aqueous buffer, pH 6.5, 1% DMSO, read-out: Solubility pH 6.5.
The mark [9] stands for this setting: simulated gastric fluid, pH 2, 1% DMSO, read-out: Solubility pH 2.
The mark [10] stands for this setting: 72 hours, read-out: genotype 1b EC50 (μM) range.
Setting [11] is: NS5B G1b (IC50 μM), genotype 1b polymerase.

For orientation: IC50 means the point on the concentration scale where inhibition reaches its midpoint. One may read the solubility as how much of the substance goes into solution per volume. Usually EC50 stands for the concentration needed to bring the measured effect to its halfway point. Turning to `CNC(=O)c1c2cc(C3CC3)c(N(CCO)S(C)(=O)=O)cc2nn1-c1ccc(C)cn1` [Compound 2, 5-cyclopropyl-6-[(2-hydroxyethyl)(methylsulfonyl)amino]-N-methyl-2-(5-methylpyridin-2-yl)-2H-indazole-3-carboxamide], the IC50 in data set [1] (setting [7]) is 1 to 10 µM. Moreover, the solubility at 30 min in data set [2] (setting [8]) was above 100 µg/mL; in data set [2] (setting [9]) it was 50 to 100 µg/mL (≈ 113 to 225 µM). The EC50 in data set [3] (setting [10]) lay within 0.1 to 0.49 µM.
`CNC(=O)c1c2cc(C3CC3)c(N(CC(F)F)S(C)(=O)=O)cc2nn1-c1ccc(C)cn1` [Compound 3, 5-cyclopropyl-6-[(2,2-difluoroethyl)(methylsulfonyl)amino]-N-methyl-2-(5-methylpyridin-2-yl)-2H-indazole-3-carboxamide]: the IC50 in data set [1] (setting [7]) was 0.5 to 0.99 µM. The solubility at 30 min in data set [2] (setting [8]) and in data set [2] (setting [9]) was 50 to 100 µg/mL (≈ 108 to 216 µM) throughout. Besides, in data set [3] (setting [10]), the EC50 was below 0.1 µM.
One may read the CC50 as the concentration at which the toxic effect on the cells reaches its halfway point. Consider `CNC(=O)c1c2cc(C3CC3)c(N(CCC3COC3)S(C)(=O)=O)cc2nn1-c1ccc(C)cn1` [Compound 4, 5-cyclopropyl-N-methyl-2-(5-methylpyridin-2-yl)-6-{(methylsulfonyl)[2-(oxetan-3-yl)ethyl]amino}-2H-indazole-3-carboxamide], for which the EC50 in data set [4] was 0.293 µM; in data set [3] (setting [10]), below 0.1 µM; in data set [3] (read-out: G1b (EC50 μM)) it was 0.054 µM; in data set [6], 0.035 µM. Also, in data set [5], the CC50 at 3 days is above 50 µM. The IC50 in data set [1] (setting [7]) is 0.1 to 0.49 µM; in data set [1] (setting [11]) it was 0.388 µM.
Regarding `CNC(=O)c1c2cc(C3CC3)c(N(C)S(C)(=O)=O)cc2nn1-c1ccc(C)cn1` [Compound 6, 5-cyclopropyl-N-methyl-6-[methyl(methylsulfonyl)amino]-2-(5-methylpyridin-2-yl)-2H-indazole-3-carboxamide], the EC50 in data set [4] was 0.024 µM; in data set [3] (setting [10]), below 0.1 µM; in data set [3] (read-out: G1b (EC50 μM)), 0.004 µM; in data set [6] it was 0.044 µM. Further, the CC50 at 3 days in data set [5] was above 50 µM. Moreover, the values for the IC50 in data set [1] (setting [7]) and in data set [1] (setting [11]) were 0.1 to 0.49 µM and 0.31 µM, respectively.
As for `CNC(=O)c1c2cc(C3CC3)c(N(CCF)S(C)(=O)=O)cc2nn1-c1ccc(C)cn1` [Compound 7, 5-cyclopropyl-6-[(2-fluoroethyl)(methylsulfonyl)amino]-N-methyl-2-(5-methylpyridin-2-yl)-2H-indazole-3-carboxamide], in data set [1] (setting [7]), the IC50 lay within 0.5 to 0.99 µM. Also, the EC50 in data set [3] (setting [10]) is below 0.1 µM.
For `CCN(c1cc2nn(-c3ccc(Cl)cn3)c(C(=O)NC)c2cc1C1CC1)S(C)(=O)=O` [Compound 8, 2-(5-chloropyridin-2-yl)-5-cyclopropyl-6-[ethyl(methylsulfonyl)amino]-N-methyl-2H-indazole-3-carboxamide], the EC50 was 0.04 µM in data set [4], below 0.1 µM in data set [3] (setting [10]), 0.009 µM in data set [3] (read-out: G1b (EC50 μM)) and 0.016 µM in data set [6]. Besides, in data set [5], the CC50 at 3 days was above 50 µM. In addition, the IC50 in data set [1] (setting [7]) was below 0.1 µM; in data set [1] (setting [11]), 0.091 µM.
As to `CNC(=O)c1c2cc(C3CC3)c(N(C)S(C)(=O)=O)cc2nn1-c1ccc(Cl)cn1` [Compound 9, 2-(5-chloropyridin-2-yl)-5-cyclopropyl-N-methyl-6-[methyl(methylsulfonyl)amino]-2H-indazole-3-carboxamide], the EC50 is 0.055 µM in data set [4], below 0.1 µM in data set [3] (setting [10]), 0.008 µM in data set [3] (read-out: G1b (EC50 μM)) and 0.031 µM in data set [6]. The CC50 at 3 days in data set [5] was above 50 µM. For the same molecule, the IC50 is below 0.1 µM in data set [1] (setting [7]) and 0.054 µM in data set [1] (setting [11]).
In data set [1] (setting [7]), `CNC(=O)c1c2cc(C3CC3)c(N(CCC3COC3C)S(C)(=O)=O)cc2nn1-c1ccc(C)cn1` (stereo not drawn) [Compound 10, 5-cyclopropyl-N-methyl-6-{[2-(2-methyloxetan-3-yl)ethyl](methylsulfonyl)amino}-2-(5-methylpyridin-2-yl)-2H-indazole-3-carboxamide] returned a half-inhibitory concentration (IC50) of 0.5 to 0.99 µM. Further, the EC50 in data set [3] (setting [10]) was below 0.1 µM.
For `CNC(=O)c1c2cc(C3CC3)c(N(C)S(C)(=O)=O)cc2nn1-c1ncc(C)s1` [Compound 13, 5-cyclopropyl-N-methyl-6-[methyl(methylsulfonyl)amino]-2-(5-methylthiazol-2-yl)indazole-3-carboxamide], the EC50 in data set [3] (setting [10]) fell in the range of 0.1 to 0.49 µM.
Still for that read-out and setting: to `CNC(=O)c1c2cc(C3CC3)c(N(C)S(C)(=O)=O)cc2nn1-c1ccccn1` [Compound 14, 5-cyclopropyl-N-methyl-6-[methyl(methylsulfonyl)amino]-2-(2-pyridyl)indazole-3-carboxamide] belongs 0.1 to 0.49 µM.
Same read-out and setting: to `CNC(=O)c1c2cc(C3CC3)c(N(C)S(C)(=O)=O)cc2nn1-c1cc(C)c(Cl)cn1` [Compound 15, 2-(5-chloro-4-methyl-2-pyridyl)-5-cyclopropyl-N-methyl-6-[methyl(methylsulfonyl)amino]indazole-3-carboxamide] belongs 0.1 to 0.49 µM.
In data set [1] (setting [7]), `CNC(=O)c1c2cc(C3CC3)c(N(CCC3CN(C(=O)OC(C)(C)C)C3)S(C)(=O)=O)cc2nn1-c1ccc(C)cn1` [Compound 16, tert-butyl 3-[2-[[5-cyclopropyl-3-(methylcarbamoyl)-2-(5-methyl-2-pyridyl)indazol-6-yl]-methylsulfonyl-amino]ethyl]azetidine-1-carboxylate] registered an IC50 of 1 to 10 µM. In data set [3] (setting [10]), the half-maximal effective concentration (EC50) is below 0.1 µM.
`CNC(=O)c1c2cc(C3CC3)c(N(CCC3CN(C(C)=O)C3)S(C)(=O)=O)cc2nn1-c1ccc(C)cn1` [Compound 17, 6-[2-(1-acetylazetidin-3-yl)ethyl-methylsulfonyl-amino]-5-cyclopropyl-N-methyl-2-(5-methyl-2-pyridyl)indazole-3-carboxamide]: the IC50 in data set [1] (setting [7]) fell in the range of 0.5 to 0.99 µM. The solubility at 30 min in data set [2] (setting [8]) was above 100 µg/mL; in data set [2] (setting [9]) it was 50 to 100 µg/mL (≈ 95.3 to 191 µM). Also, in data set [3] (setting [10]), the EC50 fell in the range of 0.1 to 0.49 µM.
Turning to `CNC(=O)c1c2cc(C3CC3)c(N(CCC3(OC)COC3)S(C)(=O)=O)cc2nn1-c1ccc(C)cn1` [Compound 18, 5-cyclopropyl-6-[2-(3-methoxyoxetan-3-yl)ethyl-methylsulfonyl-amino]-N-methyl-2-(5-methyl-2-pyridyl)indazole-3-carboxamide], the EC50 was 0.305 µM in data set [4], below 0.1 µM in data set [3] (setting [10]), 0.056 µM in data set [3] (read-out: G1b (EC50 μM)) and 0.031 µM in data set [6]. Besides, the CC50 at 3 days in data set [5] was above 50 µM. In addition, the values for the IC50 in data set [1] (setting [7]) and in data set [1] (setting [11]) were 0.1 to 0.49 µM and 0.188 µM, respectively.
On to `CNC(=O)c1c2cc(C3CC3)c(N(CCC3COC3)S(C)(=O)=O)cc2nn1-c1ccc(Cl)cn1` [Compound 19, 2-(5-chloro-2-pyridyl)-5-cyclopropyl-N-methyl-6-[methylsulfonyl-[2-(oxetan-3-yl)ethyl]amino]indazole-3-carboxamide], for which the EC50 is 0.019 µM in data set [4], below 0.1 µM in data set [3] (setting [10]), 0.021 µM in data set [3] (read-out: G1b (EC50 μM)) and 0.011 µM in data set [6]. In addition, in data set [5], the CC50 at 3 days is above 50 µM. For the same molecule, the results for the IC50 in data set [1] (setting [7]) and in data set [1] (setting [11]) were 0.1 to 0.49 µM and 0.131 µM, respectively.
